Laboratory results taken from patent US7612097B2, “Method for producing bactericidal pyridine compound and bactericidal pyridine compound” (Tama Kagaku Kogyo Co., Ltd., priority 2003, dated 2009).
Values after ≈ are worked out from the molar mass of the structure shown.

Columns and labels:
Format in all cases: cell-based
[1] = test system: Bacillus cereus IFO 3001; assay: Bacteriostatic activity MIC, broth dilution; conditions: nutrient broth, 37° C., 24 hours
Procedure: (§1) Using benzalkonium chloride as a control compound, minimum inhibitory concentrations (MICs) were determined.
(§2) Each minimum inhibitory concentration (MIC) was determined as will be described hereinafter. Aliquots of a suspension of stationary-phase cells, the cell concentration of which had been adjusted to 10^6 cells/mL with nutrient broth in accordance with the general broth dilution method, were mixed with serially-diluted solutions of a compound, respectively. Subsequent to stationary culture at 37° C. for 24 hours, the MIC value was determined depending upon whether or not any growth had taken place.
(§3) As test microorganisms, ten (10) Gram-negative bacteria and six (6) Gram-positive bacteria were used.

[2] = test system: Bacillus subtilis ATCC 6633; assay: Bacteriostatic activity MIC, broth dilution; conditions: nutrient broth, 37° C., 24 hours
Procedure: as §1, §2, §3

[3] = test system: Bacillus subtilis IFO 3134; assay: Bacteriostatic activity MIC, broth dilution; conditions: nutrient broth, 37° C., 24 hours
Procedure: as §1, §2, §3

[4] = test system: Escherichia coli K12 OUT 8401; assay: Bacteriostatic activity MIC, broth dilution; conditions: nutrient broth, 37° C., 24 hours
Procedure: as §1, §2, §3

[5] = test system: Escherichia coli K12 W3110; assay: Bacteriostatic activity MIC, broth dilution; conditions: nutrient broth, 37° C., 24 hours
Procedure: as §1, §2, §3

[6] = test system: Klebsiella pneumoniae ATCC 13883; assay: Bacteriostatic activity MIC, broth dilution; conditions: nutrient broth, 37° C., 24 hours
Procedure: as §1, §2, §3

[7] = test system: Klebsiella pneumoniae ATCC 4352; assay: Bacteriostatic activity MIC, broth dilution; conditions: nutrient broth, 37° C., 24 hours
Procedure: as §1, §2, §3

[8] = test system: Micrococcus luteus IFO 12708; assay: Bacteriostatic activity MIC, broth dilution; conditions: nutrient broth, 37° C., 24 hours
Procedure: as §1, §2, §3

[9] = test system: Proteus mirabilis IFO 3849; assay: Bacteriostatic activity MIC, broth dilution; conditions: nutrient broth, 37° C., 24 hours
Procedure: as §1, §2, §3

[10] = test system: Proteus rettgeri NIH 96; assay: Bacteriostatic activity MIC, broth dilution; conditions: nutrient broth, 37° C., 24 hours
Procedure: as §1, §2, §3

[11] = test system: Proteus vulgaris ATCC 13315; assay: Bacteriostatic activity MIC, broth dilution; conditions: nutrient broth, 37° C., 24 hours
Procedure: as §1, §2, §3

[12] = test system: Pseudomonas aeruginosa ATCC 10145; assay: Bacteriostatic activity MIC, broth dilution; conditions: nutrient broth, 37° C., 24 hours
Procedure: as §1, §2, §3

[13] = test system: Pseudomonas aeruginosa ATCC 27583; assay: Bacteriostatic activity MIC, broth dilution; conditions: nutrient broth, 37° C., 24 hours
Procedure: as §1, §2, §3

[14] = test system: Pseudomonas aeruginosa ATCC 3080; assay: Bacteriostatic activity MIC, broth dilution; conditions: nutrient broth, 37° C., 24 hours
Procedure: as §1, §2, §3

[15] = test system: Staphylococcus aureus IFO 12732; assay: Bacteriostatic activity MIC, broth dilution; conditions: nutrient broth, 37° C., 24 hours
Procedure: as §1, §2, §3

[16] = test system: Staphylococcus aureus JCI (MRSA); assay: Bacteriostatic activity MIC, broth dilution; conditions: nutrient broth, 37° C., 24 hours
Procedure: as §1, §2, §3

[17] = test system: Bacillus cereus IFO 3001; assay: Bactericidal activity MBC, dilution method; conditions: 30° C., 30 min
Procedure: as §2, with “Subsequent to stationary culture at 37° C. for 24 hours, the MIC value was determined depending upon whether or not any growth had taken place.” left out
(§4) As a control compound, benzalkonium bromide was used. Using five (5) Gram-negative bacteria and four (4) Gram-positive bacteria as test microorganisms, minimum bactericidal concentrations (MBCs) were determined in a similar manner as described above.

[18] = test system: Bacillus subtilis ATCC 6633; assay: Bactericidal activity MBC, dilution method; conditions: 30° C., 30 min
Procedure: as §2, with “Subsequent to stationary culture at 37° C. for 24 hours, the MIC value was determined depending upon whether or not any growth had taken place.” left out
as §4

[19] = test system: Bacillus subtilis IFO 3134; assay: Bactericidal activity MBC, dilution method; conditions: 30° C., 30 min
Procedure: as §2, with “Subsequent to stationary culture at 37° C. for 24 hours, the MIC value was determined depending upon whether or not any growth had taken place.” left out
as §4

[20] = test system: Escherichia coli K12 W3110; assay: Bactericidal activity MBC, dilution method; conditions: 30° C., 30 min
Procedure: as §2, with “Subsequent to stationary culture at 37° C. for 24 hours, the MIC value was determined depending upon whether or not any growth had taken place.” left out
as §4

[21] = test system: Klebsiella pneumoniae ATCC 13883; assay: Bactericidal activity MBC, dilution method; conditions: 30° C., 30 min
Procedure: as §2, with “Subsequent to stationary culture at 37° C. for 24 hours, the MIC value was determined depending upon whether or not any growth had taken place.” left out
as §4

[22] = test system: Proteus rettgeri NIH 96; assay: Bactericidal activity MBC, dilution method; conditions: 30° C., 30 min
Procedure: as §2, with “Subsequent to stationary culture at 37° C. for 24 hours, the MIC value was determined depending upon whether or not any growth had taken place.” left out
as §4

[23] = test system: Pseudomonas aeruginosa ATCC 27583; assay: Bactericidal activity MBC, dilution method; conditions: 30° C., 30 min
Procedure: as §2, with “Subsequent to stationary culture at 37° C. for 24 hours, the MIC value was determined depending upon whether or not any growth had taken place.” left out
as §4

[24] = test system: Staphylococcus aureus IFO 12732; assay: Bactericidal activity MBC, dilution method; conditions: 30° C., 30 min
Procedure: as §2, with “Subsequent to stationary culture at 37° C. for 24 hours, the MIC value was determined depending upon whether or not any growth had taken place.” left out
as §4

[25] = test system: Escherichia coli K12 OUT 8401; assay: Bactericidal activity MBC, dilution method; conditions: 30° C., 30 min
Procedure: as §2, §4

[26] = test system: Aspergillus niger IFO 6341; assay: Antimold MIC against eumycetes, broth dilution; conditions: Sabouraud medium, 30° C., 7 days
Procedure: (§5) As a control compound, TBZ (2-(4′-thiozolyl)benzimidazole) was used. Each minimum inhibitory concentration (MIC) was determined as will be described hereinafter. Following the general broth dilution method, each test microorganisms which had been precultured with Sabouraud medium was diluted with humectant-added, sterilized water to prepare a spore suspension. Aliquots (1 mL) of diluted solutions of a compound were mixed with 1-mL aliquots of the spore suspension, respectively. After incubating the mixtures at 30° C. for 1 week in an incubator, turbidity was relied upon to determine whether or not any growth had taken place. The turbidity-free lowest concentration was recorded as MIC.

[27] = test system: Aspergillus niger TSY 0013; assay: Antimold MIC against eumycetes, broth dilution; conditions: Sabouraud medium, 30° C., 7 days
Procedure: as §5

[28] = test system: Aspergillus terreus IFO 6346; assay: Antimold MIC against eumycetes, broth dilution; conditions: Sabouraud medium, 30° C., 7 days
Procedure: as §5

[29] = test system: Aureobasidium pullulans IFO 6353; assay: Antimold MIC against eumycetes, broth dilution; conditions: Sabouraud medium, 30° C., 7 days
Procedure: as §5

[30] = test system: Chaetomium globosum IFO 6347; assay: Antimold MIC against eumycetes, broth dilution; conditions: Sabouraud medium, 30° C., 7 days
Procedure: as §5

[31] = test system: Cladosporium cladosporioides IFO 6348; assay: Antimold MIC against eumycetes, broth dilution; conditions: Sabouraud medium, 30° C., 7 days
Procedure: as §5

[32] = test system: Gliocladium virides IFO 6355; assay: Antimold MIC against eumycetes, broth dilution; conditions: Sabouraud medium, 30° C., 7 days
Procedure: as §5

[33] = test system: Penicillium funiculosum IFO 6345; assay: Antimold MIC against eumycetes, broth dilution; conditions: Sabouraud medium, 30° C., 7 days
Procedure: as §5

[34] = test system: Rhizopus nigricans SN 32; assay: Antimold MIC against eumycetes, broth dilution; conditions: Sabouraud medium, 30° C., 7 days
Procedure: as §5

[35] = test system: Trichoderma virides IFO 30498; assay: Antimold MIC against eumycetes, broth dilution; conditions: Sabouraud medium, 30° C., 7 days
Procedure: as §5

Molecule	MIC [1]	MIC [2]	MIC [3]	MIC [4]	MIC [5]	MIC [6]	MIC [7]	MIC [8]	MIC [9]	MIC [10]	MIC [11]	MIC [12]	MIC [13]	MIC [14]	MIC [15]	MIC [16]	MBC [17]	MBC [18]	MBC [19]	MBC [20]	other results
CCCCCCCCCC[n+]1cccc(COCCCCOCc2ccc[n+](CCCCCCCCCC)c2)c1.[Br-].[Br-] [Compound 7-C]	0.2 µM	0.1 µM	0.2 µM	0.45 µM	0.45 µM	1.8 µM	0.45 µM	0.1 µM	1.8 µM	0.9 µM	0.45 µM	1.8 µM	1.8 µM	0.9 µM	0.2 µM	0.45 µM	0.2 µM	0.2 µM	0.45 µM	0.45 µM	MBC [21]: 0.9 µM; MBC [22]: 0.9 µM; MBC [23]: 0.9 µM; MBC [24]: 0.2 µM; MBC [25]: 0.45 µM; MIC [26]: 1.8 µM; MIC [27]: 1.8 µM; MIC [28]: 0.9 µM; MIC [29]: 1.8 µM; MIC [30]: 0.9 µM; MIC [31]: 0.9 µM; MIC [32]: 1.8 µM; MIC [33]: 1.8 µM; MIC [34]: 1.8 µM; MIC [35]: 0.9 µM
benzalkonium chloride [reference compound]	6.4 µM	6.4 µM	6.4 µM	12.8 µM	25.6 µM	102.4 µM	12.8 µM	6.4 µM	204.8 µM	51.2 µM	16.4 µM	51.2 µM	51.2 µM	102.4 µM	6.4 µM	12.8 µM					
benzalkonium iodide [reference compound]																	25.6 µM	0.8 µM	1.6 µM	204.8 µM	MBC [21]: 102.4 µM; MBC [22]: 51.2 µM; MBC [23]: 204.8 µM; MBC [24]: 6.4 µM; MBC [25]: 51.2 µM
c1ccc2[nH]c(-c3cscn3)nc2c1 [TBZ, 2-(4′-thiozolyl)benzimidazole, reference compound]																					MIC [26]: 25.6 µM (≈ 5.15 µg/mL); MIC [27]: 102.4 µM (≈ 20.6 µg/mL); MIC [28]: 25.6 µM (≈ 5.15 µg/mL); MIC [29]: 0.8 µM (≈ 0.161 µg/mL); MIC [30]: 3.2 µM (≈ 0.644 µg/mL); MIC [31]: 3.2 µM (≈ 0.644 µg/mL); MIC [32]: 3.2 µM (≈ 0.644 µg/mL); MIC [33]: 1.6 µM (≈ 0.322 µg/mL); MIC [34]: 102.4< μM; MIC [35]: 51.2 µM (≈ 10.3 µg/mL)
CCCCCCCC[n+]1ccc(COCCCCOCc2cc[n+](CCCCCCCC)cc2)cc1.[Br-].[Br-] [Compound 7-B]	0.45 µM	0.45 µM	0.45 µM	0.9 µM	0.9 µM	3.6 µM	1.8 µM	0.2 µM	6.25 µM	3.6 µM	3.6 µM	3.6 µM	3.6 µM	6.25 µM	0.45 µM	0.45 µM	0.9 µM	0.9 µM	0.9 µM	1.8 µM	MBC [21]: 3.6 µM; MBC [22]: 3.6 µM; MBC [23]: 3.6 µM; MBC [24]: 0.9 µM; MBC [25]: 1.8 µM; MIC [26]: 3.6 µM; MIC [27]: 3.6 µM; MIC [28]: 3.6 µM; MIC [29]: 3.6 µM; MIC [30]: 3.6 µM; MIC [31]: 3.6 µM; MIC [32]: 3.6 µM; MIC [33]: 3.6 µM; MIC [34]: 6.25 µM; MIC [35]: 6.25 µM
CCCCCCCC[n+]1cccc(COCCCCOCc2ccc[n+](CCCCCCCC)c2)c1.[Br-].[Br-] [Compound 7-A]	0.45 µM	0.45 µM	0.5 µM	0.9 µM	0.9 µM	1.8 µM	1.8 µM	0.2 µM	6.25 µM	3.6 µM	3.6 µM	6.25 µM	6.25 µM	6.25 µM	0.45 µM	0.4 µM	0.9 µM	0.9 µM	0.9 µM	1.8 µM	MBC [21]: 3.6 µM; MBC [22]: 3.6 µM; MBC [23]: 3.6 µM; MBC [24]: 0.9 µM; MBC [25]: 1.8 µM; MIC [26]: 3.6 µM; MIC [27]: 3.6 µM; MIC [28]: 3.6 µM; MIC [29]: 3.6 µM; MIC [30]: 3.6 µM; MIC [31]: 3.6 µM; MIC [32]: 3.6 µM; MIC [33]: 3.6 µM; MIC [34]: 6.25 µM; MIC [35]: 6.25 µM
